Measurements: US11759480B2, “Compositions and methods for CAR T cell therapy” (ENDOCYTE, INC., priority 2017, dated 2023)

Key:
[1] = system: anti-fluorescein scFv on CAR T cells; experiment: Competitive binding assay against FITC-Alexa647 on CAR T cells; details: 1 μM competing ligand versus FITC-Alexa647 10 nM
Protocol: To examine the ability of bridge molecules to bind anti-fluorescein scFv on CAR T cells, a competitive binding assay was developed. Measurement of the fluorescein signal from CAR T cell bound bridges could not be used due to the overlap of its fluorescence with that of the GFP expressing CAR T cells. For this purpose, FITC-Alexa647 (10 nM) was allowed to bind anti-fluorescein CAR T cells in the absence or presence of excess (1 μM) competing ligand (i.e. FITC-folate, FITC-DUPA, FITC-CA9) for 1 h at room temperature. After incubation, anti-fluorescein CAR T cells were washed 3× with PBS to remove unbounded FITC-Alexa647, and the washed cells were analyzed for Alexa647 fluorescence by flow cytometry.
Fluorescein-folate (FITC-folate) and fluorescein-PSMA (FITC-DUPA) were synthesized as previously described. To examine the ability of these bridge molecules to bind anti-fluorescein scFv on CAR T cells, a competitive binding assay had to be developed, because measurement of the fluorescein signal from CAR T cell bound bridge could not be used due to the overlap of its fluorescence with that of the GFP expressing CAR T cells. For this purpose, FITC-Alexa647 (10 nM) was allowed to bind anti-fluorescein CAR T cells in the absence or presence of excess (1 μM) competing ligand (i.e. FITC-folate) for 1 h at room temperature. After incubation, anti-fluorescein CAR T cells were washed 3× with PBS to remove unbounded FITC-Alexa647, and the washed cells were analyzed for Alexa647 fluorescence by flow cytometry. For analysis of FITC-folate to binding to folate receptor, FR positive KB cells were incubated with FITC-folate (100 nM) in the absence or presence of excess (10 μM) free folate (i.e. as a competitive ligand). After washing samples with PBS (3 times), samples were analyzed by flow cytometry for fluorescein-folate binding.

[2] = system: MDA-MB-231 solid tumor xenografts; experiment: Anti-tumor efficacy and toxicity of CAR T cells with EC17 in vivo (Example 17); set-up: species or system NSG mice
Protocol: Immunodeficient NSG mice (Jackson Laboratory) were used to identify the efficacy of CAR T cell anti-tumor activity in vivo. A folate receptor expressing MDA-MB-231 cancer cell line was subcutaneously injected into the back of NSG mice to establish solid tumor xenografts. When tumor volume of around 100-300 mm^3 was reached, a desired concentration of EC17 (as shown in the figure legends) was introduced 4 hours before the administration of a desired number of CAR T cell (as shown in the figure legends) into the mice bearing tumors. After initial administration of EC17 and CAR T cells, desired concentrations of EC17 (as shown in the figure legends) were also introduced (i.v.) three times per week. Control mice were administered T cells without CAR modification. Other control mice were administrated CAR-Ts, but PBS was dosed instead of EC17. Anti-tumor efficacy was monitored by tumor volume. General toxicity of the therapy was monitored by weight loss, gross animal morphology and behavior.

MDA-MB-231 tumors = experiment: EC17 pre-painting combined with delayed second EC17 dose (Example 30); format: in vivo, mice
Protocol: FITC-CAR-T related toxicity (e.g. sCRS) can be reduced by the combination of EC17 pre-painting and the delay of EC17 dosing post CAR-T administration. To explore strategies to control therapy-related toxicity, the combination of the EC17 pre-painting and EC17 dosing schedule optimization was evaluated. Mice bearing MDA-MB-231 tumors (100-200 mm3) were divided into three groups. Mice in group #1 (no EC17 pre-painting) were administered with 8 million FITC-CAR-T cells through the tail vein, and 500 nmol/kg EC17 was then dosed as a single dose per week (at days 2, 9, 16, etc.) post CAR-T administration. Mice in group #2 (EC17 4 hour pre-painting) were pre-painted with 500 nmol/kg EC17 4 hours before the administration of 8 million CAR-T cells, and 500 nmol/kg EC17 was then dosed as a single dose per week post CAR-T administration. Mice in group #3 (EC17 4 hour pre-painting+delayed second EC17 dose) were also pre-painted with 500 nmol/kg EC17 4 hours before the administration of 8 million CAR-T cells, but the second dose of 500 nmol/kg EC17 was postponed until 7 days after CAR-T administration, and the single dose per week schedule of EC17 dosing was then followed. Three days after CAR-T administration, mice in the three groups were evaluated by visual observation.

Nc1nc2ncc(CNc3ccc(C(=O)NC(CCC(=O)NCCNC(=S)Nc4ccc(-c5c6ccc(=O)cc-6oc6cc(O)ccc56)c(C(=O)O)c4)C(=O)O)cc3)nc2c(=O)[nH]1 (centres unmarked) [EC17, FITC-Folate]
binding to CAR-expressing T cells [1]: able to bind to the CAR-expressing T cells | binding to CAR-expressing T cells ([1]; listed as fluorescein-folate): competitively block FITC-Alexa 647 binding | effect of changing dosing frequency from TIW to SIW ([2]; 5 million CAR T cells): reduce the toxicity and achieve better anti-tumor potency | anti-tumor outcome ([2]; EC17 20 and 100 nmoles/kg): complete cures | sCRS and body weight loss compared to 500 nmoles/kg cohort ([2]; EC17 20 and 100 nmoles/kg): a lower percentage of sCRS and less body weight loss | body weight loss ([2]; optimized EC17 amount and CAR T numbers, complete cures reached): 2% | sCRS and cures ([2]; over-saturated EC17 doses 1500 and 10000 nmoles/kg): less mice showed sCRS but less mice reached cures | anti-tumor outcome (MDA-MB-231 tumors; all three groups): complete responses | sCRS by visual observation (MDA-MB-231 tumors; group #1 no pre-painting, three days after CAR-T): the worst sCRS | sCRS by visual observation (MDA-MB-231 tumors; group #2 EC17 4 hour pre-painting): sCRS but less severe | sCRS by visual observation (MDA-MB-231 tumors; group #3 EC17 4 hour pre-painting + delayed second EC17 dose): didn't show sCRS
